Experimental data published in patent publication US20240002424A1, “HEXOSAMINE COMPOUNDS AND METHODS THEREOF” (National Institute of Immunology, priority 2021, published 2024).

Legend:
Format in all cases: cell-based, human
HL-60 cells [1] = experiment: Cell surface sialyl-Lewis-X (CD15s) by anti-CD15s (CSLEX1) flow cytometry; details: 50 μM, 24 h
Protocol: Effect of ManNAc analogues on the expression of sialyl-Lewis-X and Lewis-X: HL-60 cells (3.0×10^5 cells/mL in 2.0 mL complete medium in 6 well plate) were treated with D (vehicle), 1a, 1b, 1c, 1d, 1e, 1f, or 1g (50 PM), along with untreated (U) control. After 24 h, cells were harvested and washed with PBS (3×0.5 mL, 3000×g, 3.0 min at room temperature). Prior to last wash, cells were counted using Z2 coulter counter and aliquoted at 2.5×10^5 cells per sample and stained with either mouse anti-human CD15s (CSLEX1) (1.25 μg/mL) or mouse anti-human CD15 (HI98) (2.5 μg/mL) in HEPES/CaCl2) buffer (30 mM HEPES, 110 mM NaCl, 10 mM KCl, 2 mM MgCl2, 10 mM glucose, 1.5 mM CaCl2) containing 0.1% bovine serum albumin, pH 7.3) (total volume of 100 μL) for 30 min at 4° C. Cells were washed with HEPES/CaCl2 buffer (2×0.5 mL) and stained with AlexaFluor488-conjugated anti-mouse IgM (2.5 μg/mL) (for both CD15s and CD15) in 100 μL HEPES/CaCl2 for 30 min at 4° C. Cells were washed with HEPES/CaCl2 buffer (2×0.5 mL), resuspended in PBS (0.2 mL), treated with PI (2.5 μg/ml) and analysed by BD FACSVerse. Samples treated with (i) isotype antibodies followed by secondary antibody and (ii) secondary antibody alone were prepared as controls. Single Cells were gated for PI-negative population for 10,000 events and analysed by flow cytometry. Two replicate samples were prepared for each condition and each sample was counted twice. Three independent experiments were performed. Data was analysed using FlowJo V10. For plotting graph and calculation of significant probability ‘p’ values, two-way ANOVA with Dunnett's multiple comparison tests was employed in GraphPad Prism 8.
Time course of CD15s expression: HL-60 cells (3.0×10^5 cells/mL in 2.5 mL complete medium in 6-well plates) were incubated with D, 1a, 1b, or 1d (50 mM). At each time point, from day 1 to day 6, the cells were harvested from the entire contents of the well, washed, and aliquoted to 5.0×10^5 cells per sample, and immuno-stained using anti-CD15s (CSLEX1) antibody as mentioned above. On day 3, 4, and 5 complete media (1.0 mL) was added to each remaining well in order to compensate for media exhaustion. No contents were removed from the well during the period.

HL-60 cells [2] = experiment: Cell density as a measure of proliferation/cytotoxicity; details: 100 μM, cell density measured at 24, 48, and 72 h
Jurkat cells = experiment: NeuAz expression on the cell surface by SPAAC with DBCO-Cy5 and flow cytometry, competition with Ac4ManNAz (1c); details: for reduction in NeuAz expression upon co-incubation: 0-50 μM with 1c 50 μM, simultaneous addition
Protocol: FIG. 5 illustrates competitive processing by compounds of the present invention (ManNAc compounds). ManNAc compounds competitively reduce the expression of N-azidoacetyl-D-neuraminic acid (NeuAz)-carrying sialoglycans through the metabolic processing of Ac4ManNAz. Jurkat (human T-lymphoma) cells were incubated with Ac4ManNAz (Z) (50 μM) alone, co-incubated with GL-2, GL-3, MA-2, or MA-3 (at various concentrations such as 10,
25, and 50 μM) for 24 h. Expression of N-azidoacetyl-D-neuraminic acid (NeuAz) on the cell surface sialoglycans was estimated using strain-promoted azide-alkyne cycloaddition (SPAAC) with DBCO-Cy5 and analyzed by flow cytometry. […] GL-2 was used for comparative study and the structure of this compound is as below.
Jurkat cells (3.0×10^5 cells/mL; 2.5 mL per well in 6-well plates) in complete medium were treated with either vehicle (D) or Compound 1c; Untreated Jurkat cells, without addition of vehicle, were also included as additional controls. Cells were harvested at 48 h, washed thrice with PBS (3×0.5 mL) (3000×g, 2.0 min). Prior to the last wash cells were counted and were aliquoted to 1.0×10^6 cells per sample in 1.5 mL microcentrifuge tubes and centrifuged. The cells were gently resuspended in PBS ([…]) and treated with DBCO-Cy5 ([…]) and incubated at 37° C. (on a Torrey-Pines dry heating bath with mild shaking). After one hour, the cells were washed using FSB (0.5 mL, 3000×g, 2.0 min, room temperature), resuspended in PBS (250 mL), treated with PI (2.5 mg/mL), and analyzed using BD FACSCanto and FACSDiva Version 6.1.3. The cells were gated for PI-negative population for 10,000 events. Two replicate samples were prepared for each conditions and each sample was counted twice.
Estimation of NeuAz expression by 1c in the presence of peracetylated ManNAc analogues: Jurkat cells (3.0×10^5 cells/mL in 3.0 mL per well in 6-well plates) were incubated with (i) D, (ii) 1a, 1b, 1c, or 1d alone (50 mM) or (iii) 1a, 1b, or 1d (50 mM) in combination with 1c (50 mM). After 24 h, cells were harvested, washed using FSB, aliquoted to 5.0×10^5 cells per sample, and processed as mentioned above for estimation of NeuAz expression using DBCO-Cy5 ([…]). Experiments using HL-60 cells were performed using the same procedure. […]
Effect of GlcNAc and ManNAc analogues on NeuAz expression: Jurkat cells were treated with 1a, 1b, 2a, or 2b (10, 25, and 50 mM for each analogue) in combination with 1c (50 mM). Cells treated with 1c (50 mM) alone were considered as a reference. After 24 h, cells were harvested, processed, labelled with DBCO-Cy5 ([…]), and analysed by flow cytometry as mentioned above.
In order to evaluate the metabolism, Jurkat (human T-lymphoma) cells were selected and incubated with ManNAc analogues either alone (50 μM) or in combination with 1c (50 μM) for 48 h. Expression of NeuAz on cell surface was estimated by flow cytometry through the copper-free bio-orthogonal strain-promoted azide-alkyne cycloaddition (SPAAC) reaction using dibenzocyclooctyne-Cy5 (DBCO-Cy5). The conditions for click reaction were optimized for various concentrations of DBCO-Cy5 and time course of SPAAC reaction in Jurkat cells. Based on the optimization results, incubation time of 30 min at 37° C. for 5.0×10^5 cells (pre-incubated with 1c for 48 h) with 20 μM of DBCO-Cy5 in 100 μL total volume for experiments with ManNAc analogues was chosen. […] In order to test the dose-dependency of this inhibitory effect on NeuAz expression and to establish competitive metabolic processing, Jurkat cells were first treated with either 1a or 1b (0-50 μM) followed by addition of 1c (50 μM) at 12 h and estimation of NeuAz at 48 h. As expected, the suppression of NeuAz expression was substantially higher when added with a 12 h delay compared to simultaneous addition, in a dose-dependent manner. […] By contrast simultaneous addition resulted only in a 10% reduction of NeuAz for both 1a and 1b (FIG. 6C and FIG. 7B).

HL-60 cells [3] = experiment: Total and glycoside bound sialic acids by periodate-resorcinol assay; details: 100 μM, 48 h
Protocol: Total sialic acids were measured following reported procedures. HL-60 cells (3.0×10^5 cells/mL in 10 mL complete medium in 10 cm diameter Petri dishes) were incubated with D, 1a, 1b, 1c, 1d, 1e, 1f, 1g, 2a, or 2b (100 mM each), along with untreated (U) controls. After 48 h, cells were harvested, washed with PBS (3×5.0 mL; 3000×g, for 2.0 min), aliquoted to 2×10^6 cells per sample and resuspended in PBS (150 mL) in 1.5 mL microcentrifuge tubes. Cells were lyzed by three freeze-thaw cycles and the total lysates were subjected to periodate-resorcinol assay. Briefly, lysates (150 mL) were treated with 0.4 M aqueous periodic acid (6.67 mM) or (2.5 mL) and incubated either on ice for 15 min (for measurement of total sialic acids) or at 37° C. for 1.0 h (for measurement of glycoconjugate bound sialic acids). About 10 mL of reagent cocktail was prepared using 6% w/v of aqueous resorcinol (1.0 mL), 2.5 mM copper (II) sulfate (1.0 mL), 44% of concentrated hydrochloric acid (4.4 mL), and water (3.6 mL). The mixture was then treated with the reagent cocktail (250 mL per sample), boiled at 100° C. for 10 min, rapidly quenched in an ice-bath and treated with tert-butanol (250 mL). The contents were centrifuged and the supernatants were aliquoted (200 mL) into 96-well plates and the absorbance at 630 nm was measured. At least three replicates were prepared for each condition.

HL-60 cells [4] = experiment: NeuAz expression by SPAAC with DBCO-Cy5 and flow cytometry, competition with 1c; details: 50 μM with 1c 50 μM, 24 h
Protocol: Estimation of NeuAz expression by 1c in the presence of peracetylated ManNAc analogues: Jurkat cells (3.0×10^5 cells/mL in 3.0 mL per well in 6-well plates) were incubated with (i) D, (ii) 1a, 1b, 1c, or 1d alone (50 mM) or (iii) 1a, 1b, or 1d (50 mM) in combination with 1c (50 mM). After 24 h, cells were harvested, washed using FSB, aliquoted to 5.0×10^5 cells per sample, and processed as mentioned above for estimation of NeuAz expression using DBCO-Cy5 ([…]). Experiments using HL-60 cells were performed using the same procedure.
Having confirmed metabolic acceptability in Jurkat cells, the compounds were tested on HL-60 (human acute myeloid leukemia) cells which are a reliable model for neutrophil adhesion. The effect on competitive suppression of NeuAz expression was studied using 1c as a reporter. HL-60 cells were treated with 1c either alone (50 μM) or in combination with ManNAc analogues (50 μM), including the straight chain derivatives, for 24 h followed by DBCO-Cy5 ligation. […] The decreasing ability of linear alkyl moieties (1d-1g), as a function of chain length, for suppression of NeuAz expression is in contrast to the cycloalkyl moieties. […] Similarly, 1a induced a reduction of 40% compared to only a 15% reduction by 1f.

In the case of `CC(=O)OC[C@H]1O[C@H](OC(C)=O)[C@@H](NC(=O)CN=[N+]=[N-])[C@@H](OC(C)=O)[C@@H]1OC(C)=O` [Compound 1c, 1,3,4,6-tetra-O-acetyl-2-azidoacetylamino-2-deoxy-α-D-mannopyranose], the “increase in binding of CSLEX1 antibody (sLeX) compared to controls” value (HL-60 cells [1]) is reported as 1.4 fold, the “decrease in cell density” value (HL-60 cells [2]) is reported as roughly 10% and the “NeuAz expression / DBCO-Cy5 signal, compound alone” value (Jurkat cells; 50 μM alone, 48 h) is reported as “robust expression of NeuAz”. For the same molecule, the “glycoside bound sialic acid levels (in words)” value (HL-60 cells [3]) was “comparable to untreated cells”.

In the case of `CCC(=O)N[C@@H]1[C@@H](OC(C)=O)O[C@H](COC(C)=O)[C@@H](OC(C)=O)[C@@H]1OC(C)=O` [Compound 1e, 1,3,4,6-tetra-O-acetyl-2-(1-propanoyl)amino-2-deoxy-α-D-mannopyranose], the “NeuAz expression with respect to 1c alone (100%)” value (HL-60 cells [4]) is reported as 65%, the “suppression of NeuAz expression (in words)” value (HL-60 cells [4]) is reported as “significant suppression” and the “increase in binding of CSLEX1 antibody (sLeX) compared to controls” value (HL-60 cells [1]) is reported as roughly 2.5 fold. For the same molecule, the “increase in glycoside bound sialic acid levels” value (HL-60 cells [3]) was roughly 10%, the “increase in total sialic acid levels vs untreated cells” value (HL-60 cells [3]) was 2.3 fold and the “ratio of total sialic acids to glycoside bound sialic acids vs untreated cells” value (HL-60 cells [3]) was “higher ratios of free sialic acid”.

With `CC(=O)OC[C@H]1O[C@@H](OC(C)=O)[C@H](NC(=O)C2CC2)[C@@H](OC(C)=O)[C@@H]1OC(C)=O` [Compound 2a, 1,3,4,6-tetra-O-acetyl-2-cyclopropanoylamino-2-deoxy-β-D-glucopyranose] the “decrease in cell density” value (HL-60 cells [2]) was roughly 10%, the “reduction in NeuAz expression upon co-incubation” value (Jurkat cells; 24 h) was “negligible reduction” and the “NeuAz expression upon co-incubation with Ac4ManNAz” value (Jurkat cells; Ac4ManNAz (Z) 50 μM plus analogue at 10, 25, 50 μM, 24 h) was “not”. The “glycoside bound sialic acid levels (in words)” value (HL-60 cells [3]) was “comparable to untreated cells”, the “ratio of total sialic acids to glycoside bound sialic acids vs untreated cells” value (HL-60 cells [3]) was “lower ratios” and the “total sialic acid levels (in words)” value (HL-60 cells [3]) was “comparable to untreated cells”.

In the case of `CC(=O)OC[C@H]1OC(OC(C)=O)[C@H](NC(=O)C2CCC2)[C@@H](OC(C)=O)[C@@H]1OC(C)=O` (stereo partly drawn) [Compound 2b, (3R,4R,5S,6R)-6-(acetoxymethyl)-3-(cyclobutanecarboxamido)tetrahydro-2H-pyran-2,4,5-triyl triacetate], the “decrease in cell density” value (HL-60 cells [2]) is reported as roughly 10%, the “reduction in NeuAz expression upon co-incubation” value (Jurkat cells; 24 h) is reported as “negligible reduction” and the “glycoside bound sialic acid levels (in words)” value (HL-60 cells [3]) is reported as “comparable to untreated cells”. For the same molecule, the “ratio of total sialic acids to glycoside bound sialic acids vs untreated cells” value (HL-60 cells [3]) was “lower ratios” and the “total sialic acid levels (in words)” value (HL-60 cells [3]) was “comparable to untreated cells”.
